Laboratory results published in patent publication US9212146B2, “Substituted pyridazinones for the treatment of tumors” (SHANGHAI INSTITUTE OF MATERIA MEDICA, CHINESE ACADEMY OF …, priority 2008, dated 2015).

Assays:
[1] = system: human hepatoma cell line Bel-7402; test: SRB proliferation assay, Bel-7402; type: cell-based; conditions: Homo sapiens, Bel-7402, 72 h, BEL-7402 cultivated in vitro, given as bounds, read-out: The Inhibition Activities for Human Liver Cancer Cells BEL-7402 (IC50)
Protocol: (§1) Protocol: the antineoplasmic activities in vitro of the compounds were assayed by a Sulforhodamine B (SRB) protocol. Tumor cells were cultivated at 37 under 5% CO2 in a RPMI 1640 medium or a DMEM medium (Gibco) containing 10% fetal bovine serum. Tumor cells were inoculated on a 96-well plate with a concentration of 0.4-1.0×10^4 cells per well according to the cell types. 24 hours later, the target compounds diluted 10 times were added, each compound having at least 5 concentrations. After treated by the compounds for 72 hours, the culture media were discarded, and the cells were fixed by 10% cold trichloroacetic acid, and then stained by Sulforhodamine B (SRB) solution. The uncombined SRB was washed off, and the SRB combined with protein was dissolved with Tris. OD values were recorded at 515 nm on an ELISA Reader, and the cell growth inhibition rate was calculated according to following equation: Inhibition rate=(ODcontrol−ODexperimental)/ODcontrol×100%
IC50 (50% inhibitory concentration) was calculated by using Logit method based on the inhibition rates at various concentration, and the results are shown in tables 1 and 2.
The following cell lines were used: human hepatocarcinoma cell line […]; ovarian cancer cell line SK-OV-3; human breast cancer cell line MDA-MB-231; human renal carcinoma cell line A498; colon adenocarcinoma cell line HT-29; non-small cell lung cancer cell line NCI-H460; lung adenocarcinoma cell line A549; human colon cancer cell line SW-620; human hepatoma cell line Bel-7402; human breast carcinoma cell line SK-BR-3; and human umbilical vein endothelial cells (HUVEC).

[2] = system: human liver cancer cells Bel-7402 transplanted tumor; type: in vivo
Description: Name and lot number: YHHU-744, a white powder, lot No.: No. c001471-106; YHHU-755, a white powder, lot No.: No. c001471-102; YHHU-756, a white powder, lot No.: No. c00147-106; YHHU-759, a white powder, lot No.: No. c001471-102; YHHU-776, a white powder, lot No.: No. c001471-107. Sorafenib was used as a positive control.
Formulation: YHHU-744, YHHU-755, YHHU-756, YHHU-759, YHHU-776 and the positive control were each diluted with 0.1% Tween-80 and distilled water to a desired concentration.
BALB/cA nude mice, 6-7 weeks old, ♀, were purchased from Shanghai SLAC Laboratory Animal Co. LTD. Certificate No.: SCXK (Shanghai) 2007-0005. Habitat: SPF level.
Human liver cancer cells Bel-7402 were inoculated on nude mice subcutaneously. After the tumor grew up to 300-450 mm^3, animals were grouped randomly (d0). The tumor volume was measured 2-3 times each week and the weights of mice were recorded. The tumor volume was calculated according to as the following equation. V=½×a×b^2 wherein, a and b are length and width, respectively. […]

[3] = system: Bel-7402 liver cancer cells; test: SRB assay Example 17, Bel-7402; type: cell-based; conditions: Homo sapiens, drug action 72 h
Protocol: as §1, with “diluted 3” for “diluted 10”, “least 9” for “least 5”
(§2) IC50 (50% inhibitory concentration) was calculated by using Logit method based on the inhibition rates at various concentration, and the results are shown in table 4.
(§3) Proliferation of turner cells was assayed by SRB protocol, drug action 72 h.

[4] = system: SMMC-7721 liver cancer cells; test: SRB assay Example 17, SMMC-7721; type: cell-based; conditions: Homo sapiens, 72 h
Protocol: as §1, with “diluted 3” for “diluted 10”, “least 9” for “least 5”
as §2, §3

[5] = system: Bel-7404 liver cancer cells; test: SRB assay Example 17, Bel-7404; type: cell-based; conditions: Homo sapiens, 72 h
Protocol: as §1, with “diluted 3” for “diluted 10”, “least 9” for “least 5”
as §2, §3

HL-7702 liver cell = test: SRB assay Example 17, HL-7702; type: cell-based; conditions: Homo sapiens, L02, 72 h
Protocol: as §1, with “diluted 3” for “diluted 10”, “least 9” for “least 5”
as §2, §3

[6] = system: QGY-7703 liver cancer cells; test: SRB assay Example 17, QGY-7703; type: cell-based; conditions: Homo sapiens, 72 h
Protocol: as §1, with “diluted 3” for “diluted 10”, “least 9” for “least 5”
as §2, §3

[7] = system: QGY-7701 liver cancer cells; test: SRB assay Example 17, QGY-7701; type: cell-based; conditions: Homo sapiens, QGY7701, 72 h
Protocol: as §1, with “diluted 3” for “diluted 10”, “least 9” for “least 5”
as §2, §3

[8] = system: QSG-7701 liver cancer cells; test: SRB assay Example 17, QSG-7701; type: cell-based; conditions: Homo sapiens, QSG7701, 72 h
Protocol: as §1, with “diluted 3” for “diluted 10”, “least 9” for “least 5”
as §2, §3

Chang liver liver cell = test: SRB assay Example 17, Chang liver; type: cell-based; conditions: Homo sapiens, 72 h
Protocol: as §1, with “diluted 3” for “diluted 10”, “least 9” for “least 5”
as §2, §3

[9] = system: SK-HEP-1 liver cancer cells; test: SRB assay Example 17, SK-HEP-1; type: cell-based; conditions: Homo sapiens, SK-HEP1, 72 h
Protocol: as §1, with “diluted 3” for “diluted 10”, “least 9” for “least 5”
as §2, §3

HepG2 liver cancer cells = test: SRB assay Example 17, HepG2; type: cell-based; conditions: Homo sapiens, 72 h
Protocol: as §1, with “diluted 3” for “diluted 10”, “least 9” for “least 5”
as §2, §3

Hep3B liver cancer cells = test: SRB assay Example 17, Hep3B; type: cell-based; conditions: Homo sapiens, 72 h
Protocol: as §1, with “diluted 3” for “diluted 10”, “least 9” for “least 5”
as §2, §3

[10] = system: HCCC-9810 liver cancer cells; test: SRB assay Example 17, HCCC-9810; type: cell-based; conditions: Homo sapiens, HCCC9810, 72 h
Protocol: as §1, with “diluted 3” for “diluted 10”, “least 9” for “least 5”
as §2, §3

HUH-7 liver cancer cells = test: SRB assay Example 17, HUH-7; type: cell-based; conditions: Homo sapiens, 72 h
Protocol: as §1, with “diluted 3” for “diluted 10”, “least 9” for “least 5”
as §2, §3

[11] = system: HUVEC normal human umbilical vein endothelial cells; test: SRB assay Example 17, HUVEC (20% FBS); type: cell-based; conditions: 72 h
Protocol: as §1, with “diluted 3” for “diluted 10”, “least 9” for “least 5”
as §2, §3

3AO ovarian cancer cells = test: SRB assay Example 17, 3AO; type: cell-based; conditions: Homo sapiens, 72 h
Protocol: as §1, with “diluted 3” for “diluted 10”, “least 9” for “least 5”
as §2, §3

[12] = system: A2780 ovarian cancer cells; test: SRB assay Example 17, A2780; type: cell-based; conditions: Homo sapiens, 72 h
Protocol: as §1, with “diluted 3” for “diluted 10”, “least 9” for “least 5”
as §2, §3

[13] = system: HeLa cervical carcinoma cells; test: SRB assay Example 17, HeLa; type: cell-based; conditions: Homo sapiens, 72 h
Protocol: as §1, with “diluted 3” for “diluted 10”, “least 9” for “least 5”
as §2, §3

H460 lung cancer cells = test: SRB assay Example 17, H460; type: cell-based; conditions: Homo sapiens, NCI-H460, 72 h
Protocol: as §1, with “diluted 3” for “diluted 10”, “least 9” for “least 5”
as §2, §3

A549 lung cancer cells = test: SRB assay Example 17, A549; type: cell-based; conditions: Homo sapiens, 72 h
Protocol: as §1, with “diluted 3” for “diluted 10”, “least 9” for “least 5”
as §2, §3

[14] = system: SK-BR-3 breast carcinoma cells; test: SRB assay Example 17, SK-BR-3; type: cell-based; conditions: Homo sapiens, 72 h
Protocol: as §1, with “diluted 3” for “diluted 10”, “least 9” for “least 5”
as §2, §3

[15] = system: MCF-7 breast carcinoma cells; test: SRB assay Example 17, MCF-7; type: cell-based; conditions: Homo sapiens, MCF7, 72 h
Protocol: as §1, with “diluted 3” for “diluted 10”, “least 9” for “least 5”
as §2, §3

[16] = system: CNE nasopharyngeal carcinoma cells; test: SRB assay Example 17, CNE; type: cell-based; conditions: Homo sapiens, 72 h
Protocol: as §1, with “diluted 3” for “diluted 10”, “least 9” for “least 5”
as §2, §3

[17] = system: human liver cancer cells SMMC-7721 transplanted tumor; test: SMMC-7721 transplanted tumor on nude mice; type: in vivo; conditions: intragastrically once a day for 10 days
Protocol: Experimental procedure: BALB/cA nude mice, 6-7 weeks old, ♀, were purchased from Shanghai SLAC Laboratory Animal Co. LTD. Certificate No.: SCXK (Shanghai) 2007-0005. Habitat: SPF level. The compounds were diluted with 0.5% CMC containing 0.1% Tween-80 to a desired concentration. Human liver cancer cells SMMC-7721 were inoculated on nude mice subcutaneously. After the tumor grew up to 100-200 mm^3, animals were grouped randomly (d0). Mice were consecutively administered with compounds intragastrically once a day for 10 days. The tumor volume was measured 2-3 times each week and the weights of mice were recorded. The tumor volume (V) was calculated according to the following equation: V=½×a×b^2, wherein, a and b are length and width, respectively.

[18] = 100 mg/kg, PO, QDx11, Bel-7402 on nude mice

Question: For `CN1CCN(c2ccc(-c3ccc(=O)[nH]n3)cc2C(F)(F)F)CC1` [YHHU-756], which IC50 [1] is on record?
Answer: < 10 nM

Question: What about the “Quantity of Animals Whose Tumors Vanished” value ([2]; 100 mg/kg, PO, QDx11, 5 animals per group) of the same compound?
Answer: 5

Question: And the “Inhibition Rate (%)” value [2, 18]?
Answer: 100%

Question: And the “Tumor Volume (mm^3)” value [2, 18]?
Answer: 294.6 mm^3

Question: And the “tumors vanished (animals/group)” value ([2]; at the 11th day, intragastrically once a day for 11 days)?
Answer: 5/5

Question: What about the recrudescence of tumors ([2]; at the end of the experiment (17th day)) of the same compound?
Answer: no recrudescence was observed

Question: And the “toxicity / survivability of mice” value ([2]; intragastrically once a day for 11 days, nude mice)?
Answer: no significant toxicity was observed

Question: And the IC50 [3]?
Answer: 20 nM

Question: What about the IC50 [4] of the same compound?
Answer: 10 nM

Question: And the IC50 [5]?
Answer: 410 nM

Question: And the IC50 (HL-7702 liver cell)?
Answer: 30 nM

Question: What about the IC50 [6] of the same compound?
Answer: 20 nM

Question: And the IC50 [7]?
Answer: 20 nM

Question: What about the IC50 [8] of the same compound?
Answer: 20 nM

Question: What about the IC50 (Chang liver liver cell) of the same compound?
Answer: 20 nM

Question: What about the IC50 [9] of the same compound?
Answer: > 10000 nM

Question: And the IC50 (HepG2 liver cancer cells)?
Answer: > 10000 nM

Question: What about the IC50 (Hep3B liver cancer cells) of the same compound?
Answer: > 10000 nM

Question: What about the IC50 [10] of the same compound?
Answer: > 10000 nM

Question: And the IC50 (HUH-7 liver cancer cells)?
Answer: > 10000 nM

Question: And the IC50 [11]?
Answer: 50 nM

Question: What about the IC50 (3AO ovarian cancer cells) of the same compound?
Answer: 20 nM

Question: And the IC50 [12]?
Answer: 30 nM

Question: And the IC50 [13]?
Answer: 20 nM

Question: And the IC50 (H460 lung cancer cells)?
Answer: 12900 nM

Question: What about the IC50 (A549 lung cancer cells) of the same compound?
Answer: 13200 nM

Question: And the IC50 [14]?
Answer: 7100 nM

Question: And the IC50 [15]?
Answer: 12100 nM

Question: And the IC50 [16]?
Answer: 10 nM

Question: What about the “survivability / weight loss of mice bearing cancer” value [17] of the same compound?
Answer: no symptoms such as weight loss was observed

Question: And the “growth of SMMC-7721 transplanted tumor” value ([17]; subcutaneous tumor on nude mice)?
Answer: caused part of the tumors vanished
